Results taken from the NIST ThermoML archive (doi:10.1016/j.tca.2004.11.034).
± gives the expanded uncertainty stated by the source.

Tests used:
[1] = xn = mol fraction of the nth substance listed; conditions: 101.33 kPa, Liquid; for speed of sound: Anton Paar DSA 48; for mass density: Vibrating tube method
[2] = excess molar enthalpy (molar enthalpy of mixing); xn = mol fraction of the nth substance listed; conditions: 298.15 K, 101.33 kPa, Liquid, Flow calorimetry
[3] = 101.33 kPa, Liquid; for speed of sound: Anton Paar DSA 48; for mass density: Vibrating tube method

CC(C)(C)Cl [2-chloro-2-methylpropane] + CC1CCCO1
[1]
Conditions | mass density, 298.15 K [kg/m3] | mass density, 313.15 K [kg/m3] | speed of sound, 298.15 K [m/s] | speed of sound, 313.15 K [m/s]
x2 = 0.0505 | 837.22 ± 0.44 | – | 993.8 ± 1.4 | –
x2 = 0.0517 | – | 819.88 ± 0.43 | – | 932.6 ± 1.4
x2 = 0.0895 | – | 820.9 ± 0.43 | – | 941.2 ± 1.4
x2 = 0.108 | 838.65 ± 0.44 | – | 1006.1 ± 1.4 | –
x2 = 0.195 | – | 823.23 ± 0.44 | – | 964 ± 1.4
x2 = 0.2065 | 840.58 ± 0.44 | – | 1027.5 ± 1.4 | –
x2 = 0.3015 | – | 825.36 ± 0.44 | – | 986.5 ± 1.4
x2 = 0.3136 | 842.3 ± 0.44 | – | 1050.9 ± 1.4 | –
x2 = 0.3969 | – | 827.1 ± 0.44 | – | 1006.8 ± 1.4
x2 = 0.4125 | 843.81 ± 0.44 | – | 1072.6 ± 1.4 | –
x2 = 0.4986 | – | 828.77 ± 0.44 | – | 1028.7 ± 1.4
x2 = 0.5156 | 845.26 ± 0.44 | – | 1095.2 ± 1.4 | –
x2 = 0.605 | – | 830.31 ± 0.44 | – | 1051.5 ± 1.4
x2 = 0.6124 | 846.46 ± 0.44 | – | 1116.5 ± 1.4 | –
x2 = 0.6978 | – | 831.4 ± 0.44 | – | 1071.1 ± 1.4
x2 = 0.7107 | 847.59 ± 0.44 | – | 1138.2 ± 1.4 | –
x2 = 0.7998 | – | 832.45 ± 0.44 | – | 1092 ± 1.4
x2 = 0.8031 | 848.42 ± 0.44 | – | 1158.7 ± 1.4 | –
x2 = 0.8947 | – | 833.18 ± 0.44 | – | 1111.7 ± 1.4
x2 = 0.9022 | 848.98 ± 0.44 | – | 1180.6 ± 1.4 | –
x2 = 0.9476 | 849.12 ± 0.44 | – | 1190.7 ± 1.4 | –
x2 = 0.949 | – | 833.54 ± 0.44 | – | 1123.7 ± 1.4

[2]
Conditions | excess molar enthalpy [kcal/mol]
x2 = 0.057 | -0.00335 ± 0.000239
x2 = 0.104 | -0.00717 ± 0.000239
x2 = 0.201 | -0.0146 ± 0.000239
x2 = 0.298 | -0.0198 ± 0.000478
x2 = 0.398 | -0.0241 ± 0.000478
x2 = 0.497 | -0.0261 ± 0.000478
x2 = 0.597 | -0.0253 ± 0.000478
x2 = 0.696 | -0.0227 ± 0.000478
x2 = 0.799 | -0.0184 ± 0.000478
x2 = 0.901 | -0.0105 ± 0.000239
x2 = 0.954 | -0.0055 ± 0.000239

CCC(C)Cl (configuration not stated) [2-chlorobutane]
[3]
Conditions | mass density [kg/m3] | speed of sound [m/s]
298.15 K | 867.37 ± 0.45 | 1066.8 ± 1.4
313.15 K | 850.16 ± 0.45 | –
333.15 K | – | 1006.9 ± 1.4

CC(C)CCl [1-chloro-2-methylpropane] + CC1CCCO1
[1]
Conditions | mass density, 298.15 K [kg/m3] | mass density, 313.15 K [kg/m3] | speed of sound, 298.15 K [m/s] | speed of sound, 313.15 K [m/s]
x2 = 0.0515 | 870.05 ± 0.45 | – | 1085.4 ± 1.4 | –
x2 = 0.0553 | – | 852.78 ± 0.45 | – | 1023 ± 1.4
x2 = 0.1006 | 869.23 ± 0.45 | – | 1091.3 ± 1.4 | –
x2 = 0.1014 | – | 852.08 ± 0.45 | – | 1028.6 ± 1.4
x2 = 0.1992 | – | 850.48 ± 0.44 | – | 1040.5 ± 1.4
x2 = 0.2026 | 867.39 ± 0.45 | – | 1103.8 ± 1.4 | –
x2 = 0.3 | – | 848.74 ± 0.44 | – | 1052.7 ± 1.4
x2 = 0.3059 | 865.41 ± 0.45 | – | 1116.6 ± 1.4 | –
x2 = 0.4062 | 863.41 ± 0.45 | – | 1129.1 ± 1.4 | –
x2 = 0.4072 | – | 846.78 ± 0.44 | – | 1065.7 ± 1.4
x2 = 0.5015 | – | 844.98 ± 0.44 | – | 1077 ± 1.4
x2 = 0.505 | 861.34 ± 0.45 | – | 1141.4 ± 1.4 | –
x2 = 0.6022 | 859.23 ± 0.45 | – | 1153.5 ± 1.4 | –
x2 = 0.605 | – | 842.9 ± 0.44 | – | 1089.3 ± 1.4
x2 = 0.7022 | – | 840.83 ± 0.44 | – | 1100.8 ± 1.4
x2 = 0.7035 | 856.92 ± 0.45 | – | 1166.1 ± 1.4 | –
x2 = 0.8 | – | 838.61 ± 0.44 | – | 1112.4 ± 1.4
x2 = 0.8012 | 854.57 ± 0.45 | – | 1178.2 ± 1.4 | –
x2 = 0.8967 | – | 836.35 ± 0.44 | – | 1123.8 ± 1.4
x2 = 0.9099 | 851.75 ± 0.45 | – | 1191.6 ± 1.4 | –
x2 = 0.9491 | – | 835.09 ± 0.44 | – | 1130 ± 1.4
x2 = 0.9492 | 850.66 ± 0.45 | – | 1196.4 ± 1.4 | –

[2]
Conditions | excess molar enthalpy [kcal/mol]
x2 = 0.06 | -0.00789 ± 0.000239
x2 = 0.109 | -0.016 ± 0.000478
x2 = 0.21 | -0.0315 ± 0.000478
x2 = 0.309 | -0.0416 ± 0.000717
x2 = 0.411 | -0.0504 ± 0.000717
x2 = 0.511 | -0.0535 ± 0.000717
x2 = 0.609 | -0.0526 ± 0.000717
x2 = 0.707 | -0.0468 ± 0.000717
x2 = 0.806 | -0.0361 ± 0.000478
x2 = 0.904 | -0.0201 ± 0.000478
x2 = 0.954 | -0.0103 ± 0.000239

CC1CCCO1 (configuration not stated) [2-methyltetrahydrofuran]
[3]
Conditions | mass density [kg/m3] | speed of sound [m/s]
298.15 K | 849.2 ± 0.46 | 1202.6 ± 1.4
313.15 K | 833.88 ± 0.45 | –
333.15 K | – | 1136.2 ± 1.4

CCCCCl [1-chlorobutane]
[3]
Conditions | mass density [kg/m3] | speed of sound [m/s]
298.15 K | 880.69 ± 0.45 | 1118.8 ± 1.4
313.15 K | 863.86 ± 0.45 | –
333.15 K | – | 1057.1 ± 1.4
